According to patent publication US6949528B1, “Compositions containing lysophosphatidic acids which inhibit apoptosis and uses thereof” (priority 1998, dated 2005):
Where two headings read alike, the source gives them in different places.

Columns and labels:
C3H/10T1/2 cells = test: Anti-apoptotic activity assay: serum deprivation of C3H/10T1/2 cells; assay type: cell-based; details: for activity compared with lysophosphatidic acid: Table 3
From the text: In order to determine the […] of the claimed invention, the following method of analysis was used. The cell assay is described in detail in U.S. Pat. Nos. 5,637,486, 5,620,888, and 5,681,703, and Tomei et al. (1993) Proc Natl. Aci. 90:853-857. Briefly, mouse fibroblast C3H/10T1/2 cells (clone 8) were obtained from ATCC (Rockville, Md.) and were maintained in exponential growth phase in which the cell cycle is randomly distributed and no cells are arrested in G0, and in quiescence. Exponential growth phase was assured by seeding at 2000 cells per 1 ml (5 ml for 60 mm culture plate) five days prior to the beginning of the experiment. Assays were performed on cells only up to passage 15. At T=0, cultures were transferred to serum-free medium, as an appropriate stimulus, and seed extracts were added. Controls included 10^−7 and 5×10^−8 M 12-O-tetradecanoyl phorbol-13-acetate (TPA) to ensure the responsiveness of the cell culture. The samples were added to serum free medium and sterile filtered prior to addition to the cultures. Assays were performed in triplicate or quadruplicate. Analyses of the cell responses were made between 18 and 28 hours of serum deprivation. Two assays were performed on each cell culture plate consisting of differential cell counts.
1. All non-adherent or loosely adherent cells were removed from the culture dish and counted by appropriate techniques, typically counting by electronic particle counting instrument. These are the apoptotic cells, the serum deprived released cells (SDR), released by the action of cultivation in serum-free medium. Approximately 95% of these released cells are apoptotic as shown by both ultrastructure analysis and DNA fragmentation analysis.
2. The remaining adherent cells (ADH) were exposed to a buffered, typically pH 7.3, balanced salt solution such as a Hanks Balanced Salt Solution without calcium and magnesium salts containing 0.05% trypsin and 0.53 mM ethylene diaminetetraacetic acid (EDTA). Each culture was incubated at either room temperature or 37(C on a rocking platform to ensure uniform distribution of the trypsin reagent over the culture surface. After a standardized period of time, typically 10 minutes, the released cells were removed from each culture dish and measured by the same means as described above, typically electronic particle counting. This ADH cell count is comprised of both trypsin resistant and trypsin sensitive cells as described in U.S. Pat. Nos. 5,637,486, 5,620,888, and 5,681,703.
Anti-apoptotic activity is expressed in the following examples as the calculated concentration of material ((g/ml of media) required to save 50% of the cells released on serum free treatment.
The ability of 18:1-LPA an other LPAs to protect serum-starved cells from apoptotic death was measured using the C3H/10T1/2 cell assay, performed as described in Example 2. The effect of various compounds on the ability of lysophosphatidic acid to protect serum-starved cells from apoptotic death was also measured. Log phase cells were seeded in 60 mm Petri dishes at 175-350 cells per cm2 and maintained in Basal Medium Eagle (BME) supplemented with 10% Heat Inactivated Fetal Bovine Serum (HIFBS). On day 3 the cells were given fresh media. Treatment began on day 5 when the media containing serum was removed and replaced with the LPA mixture to be tested. After 24 hours of treatment, day 6, serum deprived released (SDR) cells (the […] cell population) and adherent (ADH) cells were separated and counted using an electronic cell counter (Coulter Corporation, Hialea, Fla.). […]

[1] = system: rat neonatal cardiomyocytes; test: Cardiomyocyte death induced by serum/glucose deprivation; assay type: cell-based; details: for Emax: Rattus norvegicus, Cardiomyocyte, read-out: Maximum effect relative to 18:1 LPA in cardiomyocytes
Procedure: Cardiomyocytes were prepared from hearts of day-old Sprague Dawley rats by trypsinization and mechanical disaggregation (Simpson, (1985)) Circ. Res. 56:884-894. The cells were resuspended in MEM, 1×MEM vitamins (Gibco), 5% fetal bovine serum and 50 U/ml penicillin-G and pre-plated for 30 minutes to reduce contamination of non-myocytes. The non-adherent cardiac myocytes were separated and seeded in 2 ml in 35 mm dishes at a density of 3.5×10^5 viable cells per ml. The cells were allowed to adhere for 16-24 hours in a 37° C./5% CO2 humidified incubator.
For serum deprivation, the medium was replaced with fresh serum-free RPMI, whereas serum/glucose deprivation was performed using glucose-free RPMI. The induction of cell death by adriamycin or C2-ceramide was accomplished by the addition of the agent prepared in serum-free RPMI. As a model of ischemia, cultures in serum and glucose free RPMI were placed in an airtight chamber and the latter was continuously perfused with oxygen-free gas overlay of 95% N2/5% CO2 for 8 hours at 37° C. To model reperfusion of the ischemic cells, 10% fetal bovine serum, 2 g/L of glucose were added and the cultures were returned to a normal oxygen gas overlay (37° C./5% CO2) in a humidified incubator for 16 hours.
T investigate effects of LPA, LPA plus other phospholipids, PEG or their mixtures on cell death, various combinations of these components were added to cells in serum free medium at the beginning of cytotoxic treatment.
Because cardiomyocytes are terminally differentiated non-dividing cells, viability was determined by measurement of the decrease in the relative number of adherent cells. […] Adherent cardiomyocytes were collected from culture dishes using 0.25% Trypsin/0.05% EDTA and counted on Coulter Counter ZM and Coulter Channelyzer 256.

[2] = Electrophoresis radiobinding assay (native polyacrylamide gel); assay type: binding; details: FIG. 9 and other experiments
Procedure: Electrophoresis radiobinding assay. Proteins were analyzed on native polyacrylamide gels following incubation with ^3H-labeled 18:1-LPA. ^3H-labeled lysophosphatidic acid (1-oleyl) (DuPont NEN Products, Boston, Mass.) was added to tested proteins at 1 nM labeled 18:1-LPA/45_(g protein. Mixtures were incubated at a bicarbonate buffered saline/EDTA solution at 37° C. for 60 minutes. Incubated samples were mixed with native gel sample buffer (312_mM Tris pH 6.8, 50% glycerol, 0.05% bromophenol blue) and loaded entirely onto an 8% discontinuous native polyacrylamide gel. Following electrophoresis, proteins were fixed into the gels using an aqueous solution consisting of glacial acetic acid, 10% (vol/vol) and methan 130% (vol./vol.) solution. Fixed gels were then incubated for 60 minutes in autoradiography enhancer (EN^3HANCE, DuPont NEN Products, Boston, Mass.), and dried onto 3M chromatography paper (Whatman, Clifton, N.J.) and exposed to autoradiography film (X-Omat, Kodak, Rochester, N.Y.) for 72 hours at −80° C.

[3] = serum-deprived C3H/10T1/2 cells, 24 hours of treatment

Molecule | Concentration for Max Effect (C3H/10T1/2 cells; [3]) [µM] | Concentration ranges for cardiomyocyte protection ([1]; serum/glucose deprivation) | Maximum effect relative to 18:1 LPA (C3H/10T1/2 cells; [3]) [%] | Maximum effect relative to 18:1 LPA in cardiomyocytes ([1]; serum/glucose deprivation) [%] | further results
CCCCCCCCCCCCCCOCC(O)COP(=O)(O)O (racemic) [Compound 4, 3-O-Tetradecyl-rac-glycero-1-phosphate] |  |  |  |  | Maximum effect relative to 18:1 LPA: Toxic (C3H/10T1/2 cells): Toxic; lowest concentration at which cytotoxic effects were observed (column Concentration for Max Effect) (C3H/10T1/2 cells; mouse, 24 h): 10 µM; Toxic concentration range in cardiomyocytes ([1]; serum/glucose deprivation): Toxic (3-30 μM)
CCCCCCCC/C=C\CCCCCCCCOCC(O)COP(=O)(O)O (racemic) [Compound 12, 3-O-Oleyl-rac-glycero-1-phosphate] | 10 | 1 to 10 µM |  |  | Emax (C3H/10T1/2 cells; Mus musculus, serum-deprived C3H/10T1/2 cells, 24 hours of treatment, read-out: Maximum effect relative to 18:1 LPA): 100%; Emax ([1]; serum/glucose deprivation): 100%
CCCCCCCC/C=C\CCCCCCCC(=O)OCC(COP(=O)(OC)OC)OC (racemic) [Compound 45, Dimethyl 3-O-oleoyl-2-O-methyl-rac-glycero-1-phosphate] |  | 30 µM |  |  | Emax [1]: 30%
CCCCCCCC/C=C\CCCCCCCC(=O)OCC(COP(O)(O)=S)OC (racemic) [Compound 48, 3-O-Oleoyl-2-O-methyl-rac-glycero-1-thiophosphate] | 1 | .03 to 10 µM | 130 | 100 | activity compared with lysophosphatidic acid (C3H/10T1/2 cells): activity significantly higher than lysophosphaticid acid
CCCCCCCC/C=C\CCCCCCCCOCC(COP(O)(O)=S)OC (racemic) [Compound 66, 3-O-Oleyl-2-O-methyl-rac-glycero-1-thiophosphate] | 1 | .03 to 1 µM | 130 | 60 | activity compared with lysophosphatidic acid (C3H/10T1/2 cells): activity significantly higher than lysophosphaticid acid
CCCCCCCC/C=C\CCCCCCCCOC(=O)C(COP(O)(O)=S)OC (racemic) [Compound 78, Oleyl 1-thiophosphoryl-2-O-methyl-rac-glycerate] | 1 | .01 to 3 µM | 160 | 130 | activity compared with lysophosphatidic acid (C3H/10T1/2 cells): activity significantly higher than lysophosphaticid acid
CCCCCCCC/C=C\CCCCCCCCOCCCOP(=O)(O)O [Compound 16, 3-O-Oleyloxypropyl-1-phosphate] | 10 | 1 to 3 µM | 100 | 100 | 
CCCCCCCCCCOCCCOP(=O)(O)O [Compound 19, 3-Decyloxypropyl-1-phosphate] | 30 | 1 to 10 µM | 50 | 100 | 
CCCCCCCC/C=C\CCCCCCCC(=O)OCCCOP(=O)(O)O [Compound 30, 1-(3-propyl oleoate)phosphate] | 30 | 1 to 10 µM | 100 | 150 | 
CCCCCCCC/C=C\CCCCCCCC(=O)OCCCOP(O)(O)=S [Compound 68, 1-(3-propyloleoate)thiophosphate] | 1 | .003 to 10 µM | 150 | 100 | 
α-fetoprotein: α-fetoprotein from fetal bovine serum (protein, UniProt Q3SZ57 19-610, looked up) Alpha-fetoprotein: RTMHKNAYGIDSILDSSPCSSGTNLVGLATIFFAQSVQGATYEEVSQMVKDVLTIIEKPTGSKQPAGCLENQVSAFLEEICREKEIPEKYGLSDCCSRTGEERHDCFLAHKKAAPASIPPFPVLEPVTSCKSYKENRELFINRYIYEIARRHPVLYAPTILSVANQYNKIIPHCCKAENATECFETKVTSITKELRESSLLNQHICAVMGKFGPRTFRAITVTKVSQKFPKANFTEIQKLVMDVAHIHEECCKGNVLECLQDGERVMSYICSQQDILSRQIAECCKLPTTLELGHCIIHAENDDKPEGLSPNVNRFLGDRDFNQLSSRDKDLSMARFTYEYSRRHTKLAVPIILRVAKGYQELLEKCSQSENPSECQDKGEEELEKYIQESQALAKRSCGLFQKLGEYYLQNAFLVAYTKKAPQLTSPELMALTRKMANAGAICCHLSEDKQLACGEGVADLIIGHLCIRHEENPINPGVDQCCTSSYSNRRPCFSSLVVDETYVPPPFSDDKFIFHKDLCQVQGVPLQTMKQQFLINLVKQKPQITEEQLETVVADFSGLLEKCCQSQEQEVCFTEEGPALISKTRAALGV |  |  |  |  | binding to 18:1-LPA, detectable band [2]: bind to 18:1-LPA
